Values quoted from earlier work as cited in the CATMoS acute toxicity set (Mansouri et al. 2021).
Several values for one entry are separate records, joined by “and”; a condition that tells them apart may be missing. Equal values may be shown once.

assay: rat acute oral toxicity; details: in vivo

SMILES	LD50
CC(O)COC[C@H]1O[C@@H](O)[C@H](OCC(C)O)[C@@H](OCC(C)O)[C@@H]1O (some centres not stated)	10200 mg/kg
O=C(Cc1ccccc1)OC1=C(OC(=O)Cc2ccccc2)C(=O)OC1=O	8000 mg/kg
CC(C(=O)COC(=O)c1ccncc1)c1ccc(-c2ccccc2F)cc1 (configuration not stated)	1170 mg/kg
C[C@H]1CC[C@@H]2[C@@H](C)[C@H]3[C@H](C[C@H]4[C@@H]5CC=C6CC(O[C@@H]7O[C@H](CO)[C@H](O)[C@H](O[C@@H]8O[C@H](CO)[C@@H](O)[C@H](O)[C@H]8O)[C@H]7O[C@H]7O[C@@H](C)[C@H](O)[C@@H](O)[C@H]7O)CC[C@]6(C)[C@H]5CC[C@]34C)N2C1 (some centres not stated)	590 mg/kg
Nc1nc(N)c2cc(N(Cc3ccc(Cl)c(Cl)c3)N=O)ccc2n1	317 mg/kg
COc1ccc2c(=O)c3ccccc3oc2c1CN1CCCCC1	183 mg/kg
Cc1ccc(C(=O)c2ccccc2)c(C(=O)O)c1	5600 mg/kg
BrCC=CCBr	75 mg/kg
CC(=O)N(O)CCCCCNC(=O)CCC(=O)N(O)CCCCCNC(=O)CCC(=O)N(O)CCCCCN	17300 mg/kg
OC1(c2ccc(Cl)c(C(F)(F)F)c2)CCN(CCCC(c2ccc(F)cc2)c2ccc(F)cc2)CC1	160 mg/kg
O=C1CCc2cc(C(=O)CCCN3CC=C(c4ccccc4)CC3)ccc2N1	500 mg/kg
COc1ccc(C=C2C(=O)N=C3c4ccccc4N=CN23)cc1	258 mg/kg
O=C(c1ccccc1)c1ccc(O)cc1O	8600 mg/kg
CN(C)CCCOc1nn(Cc2ccccc2)c2ccccc12	740 mg/kg and 950 mg/kg
Cc1cc(C(=O)c2ccccc2)ccc1N	700 mg/kg
CCN(CC)CCSC(=O)N(c1ccccc1)c1ccccc1	370 mg/kg
CC(COc1ccccc1)N(CCCl)Cc1ccccc1 (configuration not stated)	2500 mg/kg
C[C@H](CS)C(=O)N1CCC[C@H]1C(=O)O	4240 mg/kg
CNC(=O)ON=C1C(Cl)C2CC(C#N)C1C2 (configuration not stated)	24 mg/kg
O=CN(c1ncnc2c1ncn2C1CC1)C1CC1	175 mg/kg
O=C(O)c1cc2ccccc2c(Cc2c(O)c(C(=O)OCCOCCN3CCN(C(c4ccccc4)c4ccc(Cl)cc4)CC3)cc3ccccc23)c1O (configuration not stated)	1740 mg/kg
CC(C)CCC(=O)O	2050 mg/kg

SMILES	LD50
CC(C)C(=O)C(C)C	3540 mg/kg
NCCCNCCSP(=O)(O)O	826 mg/kg
CCSC(=O)NCCCN(C)C	1300 mg/kg
Cc1ccc(=O)n(CSP(=S)(OC(C)C)OC(C)C)n1	155 mg/kg
Nc1ncnc2nccnc12	745 mg/kg
Nc1cc(Cl)c([N+](=O)[O-])cc1Cl	2820 mg/kg
COc1ccc(C(OC)C2CCCCC2N2CCCCC2)cc1 (configuration not stated)	92 mg/kg
O=C(C1CCCCC1)N1CC(=O)N2CCc3ccccc3C2C1 (configuration not stated)	2840 mg/kg
CS(=O)C(C)(C)CO (configuration not stated)	11300 mg/kg
CC(C)C(=O)Nc1ccc([N+](=O)[O-])c(C(F)(F)F)c1	787 mg/kg
C/C=C1/C[C@@H](C)[C@](O)(CO)C(=O)OCC2=CCN3CC[C@@H](OC1=O)[C@@H]23	34 mg/kg
CN1CCN(C2=Nc3ccccc3Sc3ccc(Cl)cc32)CC1	280 mg/kg
c1ccc(N(c2ccccc2)c2ccccc2)cc1	3200 mg/kg
CC12CCC(=O)CC1CCC1C2CCC2(C)C(C(=O)COC(=O)CCC(=O)O)CCC12 (configuration not stated)	700 mg/kg
CCCCOC(C[n+]1ccccc1)c1ccccc1 (configuration not stated)	250 mg/kg
Nc1ccc(C(F)(F)F)cc1NC(=O)c1cccnc1	850 mg/kg
C=CCn1c(=O)[nH]c(=O)n(CC=C)c1=O	930 mg/kg
CC(C)Cc1ccc(CC(=O)O)cc1	2300 mg/kg
CCCCc1c(C)nc(NCC)nc1OS(=O)(=O)N(C)C	4000 mg/kg
COC1OC(CNC(=O)N(CCCl)N=O)C(O)C(O)C1O (configuration not stated)	46.4 mg/kg
CC(C)N1C=CC(=C2C(=O)c3ccccc3C2=O)C=C1	1450 mg/kg
Cc1ccc(S(=O)(=O)NC(=O)NC2C3CCC(C)(C2O)C3(C)C)cc1 (configuration not stated)	18000 mg/kg

SMILES	LD50
COC(=O)N(CCCl)N=O	20 mg/kg
Cc1ccc(N)cc1Br	180 mg/kg
COc1ccc(OC)c(CC(C)N)c1 (racemic)	171 mg/kg
CCN(CC)c1nc(NC(C)C)nc(OC)n1	885 mg/kg
CC(C)N(CCC(C(N)=O)(c1ccccc1)c1ccccn1)C(C)C (configuration not stated)	880 mg/kg and 333 mg/kg
CC(C)(C)NCCO	1620 mg/kg
CC(=O)CNC(C)(C)Cc1ccccc1	225 mg/kg
CCCOP(=O)(OCCC)Oc1ccc2c(C)c(Cl)c(=O)oc2c1	80 mg/kg
COP(=S)(OC)Oc1ccc([N+](=O)[O-])c(SC(C)C)c1	1140 mg/kg
CCS(=O)(=O)Nc1c(C)cc(OC(=O)NC)cc1C	780 mg/kg
O=C1CC(=O)N(c2ccccc2)N1c1ccccc1	1000 mg/kg
C=CC(=O)OCC(CC)CC	6490 mg/kg
CCCN(CCC)c1c([N+](=O)[O-])cc(C)cc1[N+](=O)[O-]	3600 mg/kg
CCC=CCC=CCC=CCC=CCC=CCC=CCCC(=O)O	10000 mg/kg
CC(C)(C)C(O)/C(=C\c1ccc(Cl)cc1Cl)n1cncn1 (configuration not stated)	474 mg/kg
CCCCOCCOCCSC#N	90 mg/kg
C=C1/C(=C\C=C2/CCC[C@]3(C)[C@@H]([C@H](C)/C=C/[C@H](C)C(C)C)CC[C@@H]23)C[C@@H](O)C[C@@H]1O	3.5 mg/kg
CCCCCCCCCCCC(=O)N(CCO)CCO	2700 mg/kg
O=C1c2ccccc2-c2c([N+](=O)[O-])cc3c4cc([N+](=O)[O-])c5c6c(ccc(c7ccc1c2c73)c64)C(=O)c1ccccc1-5	10000 mg/kg
CC[C@H](OC(C)=O)C(C[C@H](C)N(C)C)(c1ccccc1)c1ccccc1	29 mg/kg
CCOC(=S)C=Cc1ccc2c(c1)OCO2	940 mg/kg
COP(=S)(OC)Oc1cc(C)c(SC)c(C)c1	1000 mg/kg

SMILES	LD50
N=C(N)NN=C1C=CC(=NNC(N)=S)C=C1	750 mg/kg
CC(C)CC(CC(C)C)OCCOCCO	8680 mg/kg
CC1=C(C(=O)OCCN(C)Cc2ccc(F)cc2)C(c2cccc3c2OCO3)C(C(=O)OC(C)C)=C(C)N1 (configuration not stated)	64 mg/kg
CS(=O)(=O)OCCCN(CCCOS(C)(=O)=O)Cc1ccccc1	375 mg/kg
CC(C)(C)OC(=O)CCl	380 mg/kg
CC(C(=O)O)c1ccc2oc(-c3ccc(F)cc3)nc2c1 (configuration not stated)	521 mg/kg
O=C(O)C1CC=CCC1 (configuration not stated)	4260 mg/kg
CCC1(c2cccc(O)c2)CCCCN(C)C1 (configuration not stated)	1260 mg/kg
CC(C)c1ccc(C#N)cc1	3900 mg/kg
CCCCCCOCCCCCC	30900 mg/kg
O=[N+]([O-])c1ccc(Sc2ccc([N+](=O)[O-])cc2)cc1	1490 mg/kg
OCC(O)CN1CCN(c2ccccc2)CC1 (configuration not stated)	750 mg/kg
Cc1ccccc1N=C=O	1600 mg/kg
CCCCC(CC)CO[Si](O)(O)O (configuration not stated)	19700 mg/kg
Cc1c(Cc2cc(C(C)(C)C)c(O)c(C(C)(C)C)c2)c(C)c(Cc2cc(C(C)(C)C)c(O)c(C(C)(C)C)c2)c(C)c1Cc1cc(C(C)(C)C)c(O)c(C(C)(C)C)c1	1500 mg/kg
C=CCOc1ccc([C@H]2c3ccc(OC)cc3OC(C)(C)[C@@H]2c2ccccc2)cc1	500 mg/kg
CCC(C)(C)/N=C(\NC#N)Nc1cccnc1	14 mg/kg
O=C1C=CC(=O)N1c1c(F)c(F)c(F)c(N2C(=O)C=CC2=O)c1F	2100 mg/kg
CCCCCCCCCCCCOS(=O)(=O)O	1300 mg/kg
CCCCNC(=O)n1c(NC(=O)OC)nc2ccccc21	10000 mg/kg
CCCCC(C)(C)O[Si](OC(C)(C)CCCC)(OC(C)(C)CCCC)OC(C)(C)CCCC	60300 mg/kg
COP(=O)(OC)OC(Br)C(Br)(Br)Br (configuration not stated)	184 mg/kg

SMILES	LD50
COC(=O)[C@H](C)N(OC)c1c(C)cccc1C	566 mg/kg
CCCN(CCC)CCc1cccc2c1CC(=O)N2	396 mg/kg and 862 mg/kg
CCC1CCC(C)NC1 (configuration not stated)	540 mg/kg
Cc1c(Cl)cccc1Nc1ccccc1C(=O)O	225 mg/kg
CCOC(C1=NCC(C)(C)CN1)c1cccc2ccccc12 (configuration not stated)	55 mg/kg
Nc1nc2c(Cl)cccc2o1	500 mg/kg
CCOc1ccccc1N1CCN(CCCCc2ccc3c(c2)CCC(=O)N3)CC1	500 mg/kg
CC(C)=CCC(CCN(C)C)(C(N)=O)c1cccc2ccccc12 (configuration not stated)	143 mg/kg
O=C(OCC(Br)(Br)Br)c1ccco1	1500 mg/kg
Nc1cccc2c(N)cccc12	634 mg/kg
CCCCCCCCNC(C)C(O)c1ccc(SC(C)C)cc1 (configuration not stated)	1740 mg/kg
C1CCN2C[C@@H]3C[C@@H](C[C@H]2C1)N1CCCC[C@@H]31	960 mg/kg
CCCCS(=O)(=O)NC1CCCCC1	2820 mg/kg
CCOP(=O)(Oc1ccc([N+](=O)[O-])cc1)SCC (configuration not stated)	17.9 mg/kg
Cc1cc(C(=O)NNC(C)Cc2ccccc2)no1 (configuration not stated)	89 mg/kg
CCCCC[C@H](O)/C=C/[C@@H]1[C@@H](C/C=C\CCCC(=O)O)[C@@H](O)C[C@H]1O	1170 mg/kg
FC(F)(F)c1nc2c(Br)cccc2[nH]1	28 mg/kg
CC(C)NC1CCC(c2ccccc2)(c2ccccc2)CC1	623 mg/kg
NC(Cc1ccc(N(CCCl)CCCl)cc1)C(=O)O (configuration not stated)	52 mg/kg and 105 mg/kg
CNC(=S)NNc1cc(C(F)(F)F)cc(C(F)(F)F)c1	414 mg/kg
O=C(Nc1ccccc1)c1ccccc1I	6400 mg/kg
C=CC(=O)NCOCCCC	1030 mg/kg

SMILES	LD50
CN(C)N=Nc1ccc(F)cc1	326 mg/kg
CCOc1ccccc1OCC(O)CNCCNCC(O)COc1ccccc1OCC (configuration not stated)	560 mg/kg
CCCCOC(OCCCC)C(OCCCC)OCCCC	8900 mg/kg
CCCCN(N=O)c1ccc(N(CCCC)N=O)cc1	2600 mg/kg
COc1c(C(=O)CCC(=O)O)ccc2c(C)c(C)oc12	3000 mg/kg
O=C(O)c1ccccc1OP(=O)(O)O	1100 mg/kg
CC(C)N(CCON=C1CCCCCC1=Cc1ccccc1)C(C)C	537 mg/kg
CCCCC(CC)CNCC(CC)CCCC (configuration not stated)	1640 mg/kg
CCCN(CCC)c1c([N+](=O)[O-])cc(C(F)(F)F)c(N)c1[N+](=O)[O-]	15400 mg/kg
C=CC(=O)OCCCl	180 mg/kg
Cc1cn([C@H]2C[C@H](N=[N+]=[N-])[C@@H](CO)O2)c(=O)[nH]c1=O	3080 mg/kg
CN(C)c1ncnc2c1ncn2CC1CC1	570 mg/kg
Cc1cc(Cl)ccc1OCCCC(=O)O	700 mg/kg
CC(=O)c1ccc2c(c1)N(CCCN(C)C)c1ccccc1S2	400 mg/kg
COP(=O)(OC)SCCSC	20 mg/kg
Cc1cc(N)n(-c2ccccc2)n1	2500 mg/kg
COc1ccc2oc(N)nc2c1	1000 mg/kg
NC(=S)Cc1cccc2ccccc12	60 mg/kg
C=Cc1ccc(C)nc1	1170 mg/kg
CC(=O)O[C@H]1C[C@@H]2CC[C@@H]3[C@H](CC[C@@]4(C)[C@H]3C[C@H]([N+]3(C)CCCCC3)[C@@H]4OC(C)=O)[C@@]2(C)C[C@@H]1[N+]1(C)CCCCC1	202 mg/kg
Clc1ccc2c(c1)C(c1ccccc1)=NCc1nncn1-2	2500 mg/kg
NC1CCN(c2cccc(Cl)n2)CC1	190 mg/kg
